Experimental data published in article PMC9899896, “Application of a new approach methodology (NAM)-based strategy for genotoxicity assessment of data-poor compounds” (Frontiers in Toxicology, 2023).
Like-named read-outs stand apart in the source and are kept apart here.

How the values were obtained:
[1] = system: human lymphoblastoid TK6 cells; test: Viability assessment (propidium iodide fluorescence, flow cytometry); settings: TK6 cells, ± S9, quantified at 24 h via propidium iodide
[2] = system: human lymphoblastoid TK6 cells
[3] = system: human lymphoblastoid TK6 cells; test: In vitro MicroFlow assay (flow cytometry-based micronucleus test); settings: for MicroFlow summary classification (MN induction): TK6 cells, 4H exposure, 24-h sampling; for MicroFlow %MN response (text): positive: >2.5 fold-increase in %MN and p < 0.05 vs vehicle
[4] = system: human lymphoblastoid TK6 cells; test: MultiFlow DNA Damage assay (γH2AX, p53, p-H3, polyploidy); assay type: cell-based
Method: Treated cells were gently resuspended and 25 µL/well was mixed thoroughly with the labeling solution. The plate was incubated for 30 min at room temperature shielded from light.
The γH2AX and p53 endpoints were measured based on their median fluorescence intensity (i.e., mean channel fluorescence or MCF) relative to the DMSO solvent control. The p-H3 and polyploidy endpoints were measured based on their frequencies among all events (i.e., all 2n–4n and polyploidy (8n) DNA content). The equations for calculating γH2AX shift, nuclear p53 shift, % polyploidy, and % p-H3 positive events are shown below.
Latex microspheres were used as counting beads to determine nuclear density.
Litron developed Global Evaluation Factors (GEF) to identify a biologically significant increase in select biomarker levels.
A clastogenic or aneugenic call required two successive concentrations that met or exceeded the GEFs in at least 2 of the 4 respective MoA biomarkers. Chemicals that met or exceeded two GEFs in a single non-cytotoxic concentration were designated as “weak” responses. In cases where both clastogen and aneugen biomarkers exceeded the GEF the MoA was considered pan-genotoxic. In cases where less than two biomarkers met the GEFs, the call was non-genotoxic.

chromosome damage [5] = system: chromosome damage; design: method as in Matsushima et al., 1999; Von Der Hude et al., 2000; settings: ref Matsushima et al., 1999; Von Der Hude et al., 2000; cited from earlier work
chromosome damage [6] = system: chromosome damage; design: method as in De Boeck et al., 2005; settings: ref De Boeck et al., 2005; cited from earlier work
[7] = system: human lymphoblastoid TK6 cells; test: TGx-DDI transcriptomic biomarker classification (TempO-Seq S1500+) and BMC modeling; settings: for Strength / consistency of TGx-DDI response (text): across concentrations and the three statistical analyses; for TGx-DDI classification: overall call from 2-DC, PCA, NSC-PA, S9 condition as in Figure 1; for TGx-DDI summary classification: TK6 cells, 4H exposure
[8] = Viability assessment (propidium iodide fluorescence, flow cytometry); settings: human, TK6 lymphoblastoid cells with S9
[9] = system: human lymphoblastoid TK6 cells; test: Integrated NAM-based test strategy (TGx-DDI + MicroFlow + MultiFlow; ToxPi integration of BMCs); settings: from TGx-DDI, MicroFlow and MultiFlow calls
%MN = system: %MN; design: method as in SCCP, 2006; settings: ref SCCP, 2006, cited from earlier work
[10] = follow-up assay; ref Avlasevich et al., 2021; cited from earlier work
MN = settings: known apoptogens; ref Avlasevich et al., 2021; cited from earlier work
HepaRG™ cells [11] = system: HepaRG™ cells; design: method as in Buick et al., 2020; settings: ref Buick et al., 2020; cited from earlier work
HepaRG™ cells [12] = system: HepaRG™ cells; design: method as in Buick et al., 2020; settings: ref Buick et al., 2020; cited from earlier work; remark: listed apart in the source
[13] = +S9, TK6 cells, 4H and 24H sampling
[14] = -S9, TK6 cells, 4H and 24H sampling
[15] = fold-increase over solvent control
[16] = +S9 (rat liver S9), 3 h recovery
[17] = GEF-based call, in at least one S9 condition

**Q.** Which “Effect on cell viability” value [1] does the source give for `Cc1c2ccccc2c(C)c2c1ccc1ccccc12` [DMBA, 7,12-dimethylbenz[a]anthracene, reference compound] here?
**A.** caused a decline in viability

**Q.** And the TGx-DDI summary classification [2]?
**A.** +

**Q.** And the “MicroFlow summary classification (MN induction)” value (shortened to “MicroFlow summary classification”) ([3]; +S9)?
**A.** +

**Q.** And the “MicroFlow summary classification” value ([3]; -S9)?
**A.** +

**Q.** And the “MicroFlow %MN response (text)” value [3]?
**A.** significant fold-increases in %MN

**Q.** What about the “MultiFlow summary classification (call and MoA)” value (“MultiFlow summary classification” below) [4, 13] of the same compound?
**A.** + C

**Q.** And the “MultiFlow summary classification” value [4, 14]?
**A.** -

**Q.** And the “MultiFlow biomarkers with responses” value [4, 15]?
**A.** 4H & 24H ɣH2AX

**Q.** What about the “Chromosome damage in vitro” value (chromosome damage [5]) of the same compound?
**A.** induce chromosome damage

**Q.** And the “Chromosome damage in vivo” value (chromosome damage [6])?
**A.** induce chromosome damage

**Q.** And the “Strength / consistency of TGx-DDI response (text)” value (from here on “Strength / consistency”) [7]?
**A.** strong TGx-DDI response

**Q.** And the “TGx-DDI classification” value [7]?
**A.** DDI

**Q.** For `Nc1ccc(Cl)cc1C(=O)c1ccccc1` [NSACB 1, 2-amino-5-chlorobenzophenone], which viability at 24 h [8] is on record?
**A.** 43%

**Q.** And the “MicroFlow summary classification” value ([3]; +S9)?
**A.** +

**Q.** And the “MicroFlow summary classification” value ([3]; -S9)?
**A.** +

**Q.** And the “MicroFlow %MN response (text)” value [3]?
**A.** robust fold-increase in %MN with a clear concentration-response relationship

**Q.** And the “MultiFlow MoA classification” value [4]?
**A.** non-genotoxic

**Q.** What about the “MultiFlow summary classification” value [4] of the same compound?
**A.** -

**Q.** And the “MultiFlow biomarkers with responses” value ([4]; human)?
**A.** moderate to robust response increase in one of the aneugenic biomarkers (i.e., 4H p-H3)

**Q.** And the Integrated hazard conclusion [9]?
**A.** somewhat ambiguous

**Q.** And the TGx-DDI summary classification [7, 16]?
**A.** +

**Q.** And the TGx-DDI summary classification ([7]; -S9)?
**A.** -

**Q.** What about the “Strength / consistency” value ([7]; listed as #1) of the same compound?
**A.** weaker DDI responses

**Q.** And the “Strength / consistency” value ([7]; listed as NSACB #1)?
**A.** one DDI call at the highest concentration in the NSC-PA only

**Q.** And the “TGx-DDI classification” value [7]?
**A.** DDI

**Q.** Which “MicroFlow summary classification” value ([3]; +S9) does the source give for `COc1ccc(NCCO)cc1N` [NSACB 7, 2-[(3-amino-4-methoxyphenyl)amino]ethanol] here?
**A.** +

**Q.** What about the “MicroFlow summary classification” value ([3]; -S9) of the same compound?
**A.** +

**Q.** And the “MicroFlow %MN response (text)” value ([3]; listed as 7)?
**A.** robust fold-increase in %MN with a clear concentration-response relationship

**Q.** And the “MicroFlow %MN response (text)” value ([3]; listed as NSACB #7)?
**A.** stronger %MN frequency in the +S9 condition at the highest concentration

**Q.** What about the “Strength of MultiFlow biomarker response (text)” value [4] of the same compound?
**A.** more moderate responses

**Q.** And the “MultiFlow summary classification” value [4, 13]?
**A.** + C

**Q.** What about the “MultiFlow summary classification” value [4, 14] of the same compound?
**A.** + C

**Q.** What about the “MultiFlow MoA classification” value [4, 17] of the same compound?
**A.** clastogens

**Q.** And the “MultiFlow biomarkers with responses” value [4, 15]?
**A.** 4H p53 and 4H ɣH2AX

**Q.** And the Integrated hazard conclusion [9]?
**A.** genotoxic in vitro, causing DNA damage via a clastogenic MoA

**Q.** What about the TGx-DDI summary classification [7, 16] of the same compound?
**A.** +

**Q.** What about the TGx-DDI summary classification ([7]; -S9) of the same compound?
**A.** +

**Q.** And the “Strength / consistency” value [7]?
**A.** strongest responses

**Q.** And the “TGx-DDI classification” value [7]?
**A.** DDI across all concentrations except the lowest

**Q.** What about the “In vitro micronucleus result (OECD 487)” value (%MN; with S9) of the same compound?
**A.** statistically significant and biologically relevant increase in the frequency of %MN

**Q.** And the “In vitro micronucleus result (OECD 487)” value (%MN; without S9)?
**A.** equivocal

**Q.** Which viability at 24 h [8] does the source give for `Cc1ccc(NCCO)c([N+](=O)[O-])c1` [NSACB 8, 2-[(4-methyl-2-nitrophenyl)amino]ethanol] here?
**A.** 46%

**Q.** What about the “MicroFlow summary classification” value ([3]; +S9) of the same compound?
**A.** +

**Q.** What about the “MicroFlow summary classification” value ([3]; -S9) of the same compound?
**A.** -

**Q.** And the “MicroFlow %MN response (text)” value ([3]; listed as 8)?
**A.** robust fold-increase in %MN with a clear concentration-response relationship

**Q.** What about the “MicroFlow %MN response (text)” value ([3]; listed as #8) of the same compound?
**A.** only tested positive with S9 conditions

**Q.** What about the “MultiFlow summary classification” value [4, 13] of the same compound?
**A.** -

**Q.** And the “MultiFlow summary classification” value [4, 14]?
**A.** -

**Q.** What about the “MultiFlow MoA classification” value [4, 17] of the same compound?
**A.** non-genotoxic

**Q.** What about the Integrated hazard conclusion [9] of the same compound?
**A.** somewhat ambiguous

**Q.** What about the TGx-DDI summary classification [7, 16] of the same compound?
**A.** +

**Q.** What about the TGx-DDI summary classification ([7]; -S9) of the same compound?
**A.** -

**Q.** And the “Strength / consistency” value ([7]; listed as 8)?
**A.** weaker DDI responses

**Q.** What about the “Strength / consistency” value ([7]; listed as NSACB #8) of the same compound?
**A.** two DDI calls at the highest concentration by NSC-PA and PCA

**Q.** And the “TGx-DDI classification” value [7]?
**A.** DDI

**Q.** Which MultiFlow classification [10] does the source give for `C[C@H]1CCC/C=C/[C@@H]2C[C@H](O)C[C@H]2[C@H](O)/C=C/C(=O)O1` [brefeldin A] here?
**A.** non-genotoxicants

**Q.** What about the “MicroFlow MN result” value (MN) of the same compound?
**A.** induce MN

**Q.** What does the source list for `COc1cc2c(c(OC)c1OC)-c1ccc(OC)c(=O)cc1[C@@H](NC(C)=O)CC2` [colchicine]?
**A.** MN result (HepaRG™ cells [11]): positive; TGx-DDI classification (HepaRG™ cells [12]): negative (non-DDI)

**Q.** What does the source list for “carbonyl cyanide m-chlorphenyl hydrazone [CCCP]”?
**A.** MultiFlow classification [10]: non-genotoxicants; MicroFlow MN result (MN): induce MN
